Laboratory results published in ChEMBL document CHEMBL3352096, “New 9,19-cycloartenol glycosides isolated from the roots of Cimicifuga simplex and their anti-inflammatory effects” (Bioorg Med Chem Lett, 2014).
Activity calls are given as the source filed them.

Assays:
Type in all cases: functional, cell-based
RAW [1] = assay: Antiinflammatory activity against mouse RAW cells assessed as inhibition of LPS-induced IL-23 production at 10 uM by Q-PCR analysis
RAW [2] = assay: Antiinflammatory activity against mouse RAW cells assessed as inhibition of LPS-induced IL-6 production at 10 uM by Q-PCR analysis
RAW [3] = assay: Antiinflammatory activity against mouse RAW cells assessed as inhibition of LPS-induced TNFalpha production at 10 uM by Q-PCR analysis

Measured: inhibition

CC(=O)O[C@@H]1C[C@@]23C[C@@]24CC[C@H](O[C@@H]2OC[C@@H](O)[C@H](O)[C@H]2O)C(C)(C)[C@@H]4CC=C3[C@]2(C)C[C@]3(O)O[C@H](C(=O)[C@@H]4OC4(C)C)[C@@H](C)[C@@H]3[C@@]12C
active: all assays above

CC(=O)O[C@@H]1C[C@@]23C[C@@]24CC[C@H](O[C@@H]2O[C@H](CO)[C@H](O)[C@H](O)[C@H]2O)C(C)(C)[C@@H]4CC[C@H]3[C@]2(C)C[C@]3(O)O[C@H](C(=O)[C@@H]4OC4(C)C)[C@@H](C)[C@@H]3[C@@]12C
active: all assays above
